Measurements as given in patent US9018173B2, “Materials and methods for suppressing inflammatory and neuropathic pain” (Indiana University Research and Technology Corp., priority 2010, dated 2015).
Entries after “also recorded” stand apart in the source; their conditions may differ. Residues, ends and D or L forms follow the SMILES beside them.

Columns and labels:
[1] = system: tail kinking and body contortion; assay: Observation of side-effects after i.p. injection in rats; assay type: in vivo, rat; conditions: 20 mg/kg i.p.
Description: Referring now to FIG. 24. Biodistribution and side-effects of TAT-CBD3. […] Oxygenated blood was collected from a cardiac puncture. […] The 95% confidence limits are also indicated.

[2] = system: depolarization-induced Ca2+ influx in hippocampal neurons; assay: Fura-2 calcium imaging of hippocampal neurons; assay type: cell-based, rat; conditions: expressed from plasmid; KCl 30 mM; Fura-2AM
Protocol: Referring now to FIG. 19. Overexpressed CBD3 or TAT-CBD3 reduces Ca^2+ influx predominantly via N-Type Ca^2+ channels. (FIGS. 19.A and 19.B) hippocampal neurons cultured for 5 days in vitro were transfected with DNA constructs encoding CBD3 or a scramble sequence using Lipofectamine, and then loaded with the ratiometric Ca^2+-sensitive dye Fura-2AM (3 μM). Changes in [Ca^2+]c, in response to plasma membrane depolarization with potassium chloride (KCl, 30 mM), were recorded using time-lapse, wide-field fluorescence microscopy. […] In both panels, n indicates the number of neurons from which Fura-2 fluorescence was recorded. […] (FIG. 19.D) Ca^2+ influx was monitored in DRG neurons using Fura-2AM. […] Changes in the Fura-2 F340/F380 were monitored for 10 min following stimulation with 45 mM KCl. […]
Isolation and maintenance of primary hippocampal neurons for calcium imaging. […] For fluorescence measurements, neurons were plated on glass-bottomed Petri dishes without preplated glia as previously described. […]
Calcium imaging. […] Osmolarity of the solutions was measured with the osmometer Osmette II™ (Precision Systems Inc., Natick, Mass.). […] Fluorescence was recorded through a 505 nm dichroic mirror at 535±25 nm. The fluorescence images were taken every 5 seconds during the time-course of the experiment using the minimal exposure time that provided acceptable image quality. […]

Compound | duration of contortion and tail kinking [1] | onset of contortion and tail kinking after injection [1] | side-effects observed [1] | number of episodes of contortion and tail kinking ([1]; 60 min observation) | depolarization-induced calcium influx [2]
CC(C)C[C@H](NC(=O)CNC(=O)[C@H](CCCNC(=N)N)NC(=O)[C@@H]1CCCN1C(=O)[C@@H](NC(=O)CNC(=O)[C@H](CCCNC(=N)N)NC(=O)[C@H](CC(C)C)NC(=O)[C@H](CCC(=O)O)NC(=O)[C@H](C)NC(=O)[C@H](CC(C)C)NC(=O)[C@H](CCCNC(=N)N)NC(=O)[C@H](CO)NC(=O)[C@H](CCCNC(=N)N)NC(=O)[C@H](C)NC(=O)[C@H](CCCNC(=N)N)NC(=O)[C@H](CCCNC(=N)N)NC(=O)[C@H](CCCNC(=N)N)NC(=O)[C@H](CCC(N)=O)NC(=O)[C@H](CCCNC(=N)N)NC(=O)[C@H](CCCNC(=N)N)NC(=O)[C@H](CCCCN)NC(=O)[C@H](CCCCN)NC(=O)[C@H](CCCNC(=N)N)NC(=O)CNC(=O)[C@@H](N)Cc1ccc(O)cc1)C(C)C)C(=O)O [TAT-CBD3] (H-YGRKKRRQRRRARSRLAELRGVPRGL-OH; N-terminus and C-terminus assumed) | dissipated fifteen seconds following their first appearance | about 15 seconds | whole-body lordosis-like contortion (black arrow) and tail kinking; also recorded: Transient contortions were observed | Only a single episode of contortion and tail kinking movement | 
ARSRLAELRGVPRGL (CBD3) |  |  |  |  | reduced depolarization-induced calcium influx; also recorded: blocked depolarization-induced calcium signaling
